Results published in ChEMBL document CHEMBL1201862, “PubChem BioAssay data set” (2004).
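All cell lines were grown in 96-well plates and treated with compound for 48 hours. GI50: concentration for 50% inhibition of growth.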 The source made the active and inactive calls. Rule as the data show it: active = GI50 up to about 1.1 µM and inactive = higher.

Assays:
Test in all cases: NCI-60 cell line screen, 48 h
[1] = tested on: U-251
[2] = tested on: SN12C
[3] = tested on: SW-620
[4] = tested on: A498
[5] = tested on: UO-31
[6] = tested on: M14
[7] = tested on: HOP-92
[8] = tested on: CCRF-CEM
[9] = tested on: NCI-H522
[10] = tested on: SF-268
[11] = tested on: ACHN
[12] = tested on: KM12
[13] = tested on: A549
[14] = tested on: NCI-H23
[15] = tested on: SK-MEL-5
[16] = tested on: HT-29
[17] = tested on: Malme-3M

Measured: GI50

NCC(=O)OCN1C(=O)C2C3C=CC(C2C1=O)C1C2C(=O)N(COC(=O)CN)C(=O)C2C31 (stereo not drawn)
inactive: [1] 22 µM | [2] 23.3 µM | [3] 22.4 µM | [4] > 100 µM | [5] 31.9 µM | [6] 20.5 µM | [7] 94 µM | [8] 22.9 µM | [9] 12.5 µM | [10] 20.9 µM | [11] 24.5 µM | [12] 22.2 µM | [13] 30.1 µM | [14] 21.1 µM | [15] 25.5 µM | [16] 40.6 µM

CCCCc1c2c(nc3c1CCc1cc4c(nc1-3)-c1nc3c(c(CCCC)c1CC4)CCC/C3=C\c1ccccc1)/C(=C/c1ccccc1)CCC2
inactive: [1] 47.3 µM | [2] > 100 µM | [3] 67 µM | [4] > 100 µM | [5] > 100 µM | [6] > 100 µM | [7] > 100 µM | [17] > 100 µM | [8] 48.6 µM | [9] 44.1 µM | [10] > 100 µM | [12] 98.9 µM | [13] > 100 µM | [14] 73.5 µM | [15] 69.7 µM | [16] 85.3 µM

CC(=O)OC1=C2CC[C@@H]3C(CC[C@@]4(C)C3CC[C@@H]4OC(C)=O)[C@@]2(C)CC(C#N)C1=O (stereo partly drawn)
inactive: [1] 27.4 µM | [2] 28.6 µM | [3] 35.7 µM | [4] 6.01 µM | [5] 7.69 µM | [6] 25.1 µM | [7] 15.1 µM | [17] 5.58 µM | [8] 20.2 µM | [10] 31 µM | [11] 20.8 µM | [12] 30.3 µM | [13] 30.8 µM | [14] 27.9 µM | [15] 20.2 µM | [16] 26.5 µM

COCN(C)c1nc(N(C)C)nc(N(C)C)n1
inactive: [1] > 100 µM | [2] > 100 µM | [3] > 100 µM | [4] > 100 µM | [5] > 100 µM | [6] > 100 µM | [7] > 100 µM | [17] > 100 µM | [8] > 100 µM | [9] 9.06 µM | [10] > 100 µM | [11] > 100 µM | [12] > 100 µM | [13] > 100 µM | [14] > 100 µM | [15] > 100 µM | [16] > 100 µM

OCC1CC2C=CCC(C2)C1 (stereo not drawn)
inactive: [1] > 100 µM | [2] > 100 µM | [3] > 100 µM | [4] > 100 µM | [5] > 100 µM | [6] > 100 µM | [7] > 100 µM | [17] > 100 µM | [8] > 100 µM | [9] > 100 µM | [10] > 100 µM | [11] > 100 µM | [12] > 100 µM | [13] > 100 µM | [14] > 100 µM | [15] > 100 µM | [16] > 100 µM

CC(C)OP(=O)(OC(C)C)/C(=N/Nc1ccc([N+](=O)[O-])cc1)NCCN/C(=N\Nc1ccc([N+](=O)[O-])cc1)P(=O)(OC(C)C)OC(C)C
inactive: [1] 3.3 µM | [2] 4.07 µM | [3] 3.76 µM | [4] 3.7 µM | [5] 4.4 µM | [6] 14.8 µM | [7] 3.35 µM | [17] 8.83 µM | [8] 2.84 µM | [9] 3.22 µM | [10] > 100 µM | [11] 3.56 µM | [12] 3.8 µM | [13] 3.72 µM | [14] 2.31 µM | [15] 6.22 µM

O=C1c2cnccc2Cc2cccc3c2N1c1ccccc1S3
inactive: [1] 16.6 µM | [2] 29 µM | [3] 27.8 µM | [4] 20.7 µM | [6] 24.3 µM | [7] 9.23 µM | [17] 24.7 µM | [8] 27.5 µM | [9] 12.5 µM | [10] 29 µM | [11] 19 µM | [12] 19.7 µM | [13] 23.6 µM | [14] 20.1 µM | [15] 17.9 µM | [16] 23.9 µM

COC(=O)C(=O)C1CCCCC(C2=NC3NN=C(N)N3C2=O)C1=O (stereo not drawn)
inactive: [1] > 100 µM | [2] > 100 µM | [3] > 100 µM | [4] > 100 µM | [5] > 100 µM | [6] > 100 µM | [7] > 100 µM | [17] > 100 µM | [8] > 100 µM | [9] > 100 µM | [10] > 100 µM | [11] > 100 µM | [12] > 100 µM | [13] > 100 µM | [14] > 100 µM | [15] > 100 µM | [16] > 100 µM

Cc1cccc(C)c1NC(=O)C(=O)CC(=O)CO
inactive: [1] > 100 µM | [2] > 100 µM | [3] > 100 µM | [4] > 100 µM | [5] > 100 µM | [6] > 100 µM | [7] > 100 µM | [17] > 100 µM | [8] > 100 µM | [9] > 100 µM | [10] > 100 µM | [11] > 100 µM | [12] > 100 µM | [13] > 100 µM | [14] > 100 µM | [15] > 100 µM | [16] > 100 µM

C[C@]12CCC[C@H](Cl)C1(O)C[C@H](C(=O)O)CC2 (stereo partly drawn)
inactive: [1] > 100 µM | [2] > 100 µM | [3] > 100 µM | [4] > 100 µM | [5] > 100 µM | [6] > 100 µM | [7] > 100 µM | [17] > 100 µM | [8] > 100 µM | [9] > 100 µM | [10] > 100 µM | [11] > 100 µM | [12] > 100 µM | [13] > 100 µM | [14] > 100 µM | [15] > 100 µM | [16] > 100 µM

CCOC(=O)C1(Br)C(c2ccccc2)NC(=O)N(C2OC(COC(=O)c3ccccc3)C(OC(=O)c3ccccc3)C2OC(=O)c2ccccc2)C1(C)Br (stereo not drawn)
inactive: [1] 27.8 µM | [2] 34 µM | [3] 14.4 µM | [4] 38.9 µM | [5] 25.9 µM | [6] 21 µM | [7] 18.1 µM | [17] 23.8 µM | [8] 3.15 µM | [9] 10.2 µM | [10] > 55.5 µM | [11] 30.8 µM | [12] 21.6 µM | [13] 12.9 µM | [14] 29.4 µM | [15] 15.2 µM | [16] 18.2 µM

COc1nc(NC2OCC(O)C(O)C2O)c(NC2OCC(O)C(O)C2O)c(=O)n1C (stereo not drawn)
inactive: [1] > 100 µM | [2] > 100 µM | [3] > 100 µM | [4] > 100 µM | [5] > 100 µM | [6] > 100 µM | [7] > 100 µM | [17] > 100 µM | [8] > 100 µM | [9] > 100 µM | [10] > 100 µM | [11] > 100 µM | [12] > 100 µM | [13] > 100 µM | [14] > 100 µM | [16] > 100 µM

Cc1c(Cl)ccc2c1NC(=O)C2(O)CC(=O)c1ccc(Cl)cc1 (stereo not drawn)
inactive: [1] 60.8 µM | [2] 26.8 µM | [3] 29.9 µM | [4] > 43.3 µM | [5] > 100 µM | [6] > 100 µM | [7] 69.2 µM | [17] 37.8 µM | [8] 14.5 µM | [9] > 61.5 µM | [10] > 70.1 µM | [11] > 100 µM | [12] 51.2 µM | [13] > 100 µM | [14] 54.5 µM | [15] 53.3 µM | [16] 35 µM

Cn1nc(-c2ccccc2)c2c(/C=C/c3ccccc3)onc2c1=O
inactive: [1] 64 µM | [2] > 100 µM | [4] > 100 µM | [5] 6.82 µM | [6] > 100 µM | [7] 33 µM | [17] 71.4 µM | [8] > 100 µM | [9] 37.3 µM | [10] 43.9 µM | [11] > 100 µM | [12] > 100 µM | [13] > 100 µM | [14] > 100 µM | [15] > 100 µM | [16] > 100 µM

NC(CCC(=O)Nc1ccc(O)cc1)C(=O)O (stereo not drawn)
inactive: [1] > 100 µM | [2] > 100 µM | [3] > 100 µM | [4] > 100 µM | [5] > 100 µM | [6] > 100 µM | [7] > 100 µM | [17] > 100 µM | [8] > 100 µM | [9] > 100 µM | [10] > 100 µM | [11] > 100 µM | [12] > 100 µM | [13] > 100 µM | [15] > 100 µM | [16] > 100 µM

Cc1cccc(C)c1N1C(=O)C(=O)C(c2nc3ccccc3s2)/C(=N/c2cccc3c(=O)[nH][nH]c(=O)c23)C1=O (stereo not drawn)
inactive: [1] 83 µM | [2] > 100 µM | [3] > 100 µM | [4] > 100 µM | [5] > 100 µM | [6] > 100 µM | [7] 92 µM | [17] > 100 µM | [8] 45.7 µM | [10] > 100 µM | [11] > 100 µM | [12] > 100 µM | [13] > 100 µM | [14] > 100 µM | [15] > 100 µM | [16] > 100 µM
